Experimental data reported in ChEMBL document CHEMBL3734659, “Identification of tris-(phenylalkyl)amines as new selective h5-HT2Breceptor antagonists” (Medchemcomm, 2015).
The source made the active and inactive calls. No cut-off for these calls is given here.

What was measured:
[1] = biological target: Muscarinic acetylcholine receptor M3 (Homo sapiens) (UniProt P20309); experiment: Displacement of [3H]NMS from human Muscarinic acetylcholine M3 receptor stably expressed in CHO cell after 90 mins by scintillation counting method; assay type: cell-based
[2] = biological target: Beta-3 adrenergic receptor (Homo sapiens) (UniProt P13945); experiment: Displacement of [3H]CGP12177 from human recombinant beta 3 receptor expressed in HEK Flp-In cells after 90 mins by scintillation counting method; assay type: cell-based; settings: HEK293
[3] = biological target: T1, 5-hydroxytryptamine receptor 2A (Homo sapiens, UniProt P28223); experiment: Displacement of [3H]ketanserin from human recombinant 5-HT2A receptor expressed in HEKT cell membrane at 10 uM after 90 mins by scintillation counting method; assay type: cell membranes
T1 sequence (P28223 whole entry): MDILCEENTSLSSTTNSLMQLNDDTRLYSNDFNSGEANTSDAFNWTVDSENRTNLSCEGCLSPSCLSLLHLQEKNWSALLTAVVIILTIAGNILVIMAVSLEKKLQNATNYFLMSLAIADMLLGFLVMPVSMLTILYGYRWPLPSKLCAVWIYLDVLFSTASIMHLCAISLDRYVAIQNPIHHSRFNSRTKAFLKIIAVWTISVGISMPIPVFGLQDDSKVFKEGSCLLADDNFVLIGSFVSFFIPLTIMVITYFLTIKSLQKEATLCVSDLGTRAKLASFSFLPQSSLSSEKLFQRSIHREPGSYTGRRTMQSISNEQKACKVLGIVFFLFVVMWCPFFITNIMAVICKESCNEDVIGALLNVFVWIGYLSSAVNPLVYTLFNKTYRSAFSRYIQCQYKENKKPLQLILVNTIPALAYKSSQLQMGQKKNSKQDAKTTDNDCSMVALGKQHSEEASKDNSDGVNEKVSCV

[4] = biological target: Muscarinic acetylcholine receptor M1 (Homo sapiens) (UniProt P11229); experiment: Displacement of [3H]QNB from human Muscarinic acetylcholine M1 receptor stably expressed in CHO cell after 90 mins by scintillation counting method; assay type: cell-based
Sequence of Muscarinic acetylcholine receptor M1 (Homo sapiens) (P11229 whole entry): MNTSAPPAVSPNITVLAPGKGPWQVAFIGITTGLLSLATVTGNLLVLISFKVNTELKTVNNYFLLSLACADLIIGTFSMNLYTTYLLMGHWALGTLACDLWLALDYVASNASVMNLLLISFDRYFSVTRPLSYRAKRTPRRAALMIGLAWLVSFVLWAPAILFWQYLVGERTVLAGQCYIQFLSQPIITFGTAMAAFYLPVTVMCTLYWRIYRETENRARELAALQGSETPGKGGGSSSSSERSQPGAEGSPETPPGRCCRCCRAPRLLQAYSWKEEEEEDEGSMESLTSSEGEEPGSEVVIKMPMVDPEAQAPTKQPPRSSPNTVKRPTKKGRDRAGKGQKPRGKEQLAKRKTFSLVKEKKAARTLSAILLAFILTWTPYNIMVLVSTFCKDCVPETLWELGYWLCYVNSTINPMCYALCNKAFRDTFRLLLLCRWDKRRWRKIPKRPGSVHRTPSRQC

HEK293 = experiment: Selectivity ratio of Ki for human recombinant 5-HT2C receptor to Ki for human recombinant 5-HT2B receptor stably expressed in HEK cell membrane; assay type: cell-based
[5] = biological target: T1, 5-hydroxytryptamine receptor 2A; experiment: Displacement of [3H]ketanserin from human recombinant 5-HT2A receptor expressed in HEKT cell membrane after 90 mins by scintillation counting method; assay type: cell-based
[6] = biological target: T1, 5-hydroxytryptamine receptor 2A; experiment: Antagonist activity at human recombinant 5-HT2A receptor expressed in Flp-In HEK cells in the presence of agonist preincubated for 10 mins by FLIPR based calcium mobilization assay; assay type: functional, cell-based, HEK293
[7] = Displacement of [3H]Pentazocine from Guinea pig sigma 1 receptor after 90 mins by scintillation counting method; set-up: species or system Cavia porcellus
[8] = biological target: T2, 5-hydroxytryptamine receptor 2B (Homo sapiens, UniProt P41595); experiment: Antagonist activity at human recombinant 5-HT2B receptor expressed in Flp-In HEK cells in the presence of agonist preincubated for 10 mins by FLIPR based calcium mobilization assay; assay type: functional, cell-based, HEK293
T2 sequence (P41595 whole entry): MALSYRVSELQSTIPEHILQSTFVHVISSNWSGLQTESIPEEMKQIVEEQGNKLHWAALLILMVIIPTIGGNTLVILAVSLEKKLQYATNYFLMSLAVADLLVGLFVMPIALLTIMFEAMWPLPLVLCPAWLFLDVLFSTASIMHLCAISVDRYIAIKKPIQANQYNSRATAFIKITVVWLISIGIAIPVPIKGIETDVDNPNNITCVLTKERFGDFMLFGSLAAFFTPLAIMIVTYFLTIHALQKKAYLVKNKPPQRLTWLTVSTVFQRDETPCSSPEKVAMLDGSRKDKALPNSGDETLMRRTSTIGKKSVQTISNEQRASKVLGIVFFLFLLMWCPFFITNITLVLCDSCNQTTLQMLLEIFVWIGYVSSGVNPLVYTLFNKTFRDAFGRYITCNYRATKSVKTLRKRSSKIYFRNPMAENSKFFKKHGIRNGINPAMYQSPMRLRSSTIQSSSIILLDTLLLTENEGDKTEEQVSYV

[9] = biological target: 5-hydroxytryptamine receptor 1D (Homo sapiens, UniProt P28221); experiment: Displacement of [3H]5-CT from human recombinant 5-HT1D receptor expressed in HEKT cell membrane after 90 mins by scintillation counting method; assay type: cell membranes
[10] = biological target: Alpha-2C adrenergic receptor (Homo sapiens, UniProt P18825); experiment: Displacement of [3H]Rauwolscine from human recombinant alpha 2C receptor stably expressed in MDCK cells after 90 mins by scintillation counting method; assay type: cell-based
Sequence of Alpha-2C adrenergic receptor (P18825 whole entry): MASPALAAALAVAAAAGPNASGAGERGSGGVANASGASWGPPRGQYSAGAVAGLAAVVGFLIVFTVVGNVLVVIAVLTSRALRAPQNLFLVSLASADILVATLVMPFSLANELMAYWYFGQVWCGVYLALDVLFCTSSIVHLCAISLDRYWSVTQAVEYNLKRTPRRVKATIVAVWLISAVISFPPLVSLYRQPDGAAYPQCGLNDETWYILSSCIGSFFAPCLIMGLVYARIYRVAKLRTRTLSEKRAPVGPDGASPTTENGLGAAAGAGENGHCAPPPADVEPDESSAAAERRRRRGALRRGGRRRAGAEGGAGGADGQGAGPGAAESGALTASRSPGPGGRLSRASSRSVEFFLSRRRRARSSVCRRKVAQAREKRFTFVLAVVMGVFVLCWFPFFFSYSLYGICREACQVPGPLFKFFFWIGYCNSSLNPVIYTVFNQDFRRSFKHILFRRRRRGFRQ

[11] = biological target: 5-hydroxytryptamine receptor 1E (Homo sapiens) (UniProt P28566); experiment: Displacement of [3H]5-CT from human recombinant 5-HT1E receptor stably expressed in HEK cell membrane after 90 mins by scintillation counting method; assay type: cell membranes; settings: HEK293
Sequence of 5-hydroxytryptamine receptor 1E (Homo sapiens) (P28566 whole entry): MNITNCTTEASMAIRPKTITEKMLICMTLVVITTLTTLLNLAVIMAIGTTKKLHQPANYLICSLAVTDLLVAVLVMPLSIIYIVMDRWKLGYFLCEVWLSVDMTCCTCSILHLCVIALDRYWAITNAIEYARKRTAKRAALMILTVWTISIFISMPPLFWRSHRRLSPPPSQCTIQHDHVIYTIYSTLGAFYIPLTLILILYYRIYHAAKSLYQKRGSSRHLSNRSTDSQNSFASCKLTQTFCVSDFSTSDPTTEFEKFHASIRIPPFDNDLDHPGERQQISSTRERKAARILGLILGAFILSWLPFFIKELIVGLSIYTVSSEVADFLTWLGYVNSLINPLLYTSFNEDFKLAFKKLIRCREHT

Histamine H1 receptor = Histamine H1 receptor (Homo sapiens, UniProt P35367); experiment: Displacement of [3H]Pyrilamine from human H1 Histamine receptors stably expressed in HEK cell membrane after 90 mins by scintillation counting method; assay type: cell membranes, HEK293
Sequence of Histamine H1 receptor (P35367 whole entry): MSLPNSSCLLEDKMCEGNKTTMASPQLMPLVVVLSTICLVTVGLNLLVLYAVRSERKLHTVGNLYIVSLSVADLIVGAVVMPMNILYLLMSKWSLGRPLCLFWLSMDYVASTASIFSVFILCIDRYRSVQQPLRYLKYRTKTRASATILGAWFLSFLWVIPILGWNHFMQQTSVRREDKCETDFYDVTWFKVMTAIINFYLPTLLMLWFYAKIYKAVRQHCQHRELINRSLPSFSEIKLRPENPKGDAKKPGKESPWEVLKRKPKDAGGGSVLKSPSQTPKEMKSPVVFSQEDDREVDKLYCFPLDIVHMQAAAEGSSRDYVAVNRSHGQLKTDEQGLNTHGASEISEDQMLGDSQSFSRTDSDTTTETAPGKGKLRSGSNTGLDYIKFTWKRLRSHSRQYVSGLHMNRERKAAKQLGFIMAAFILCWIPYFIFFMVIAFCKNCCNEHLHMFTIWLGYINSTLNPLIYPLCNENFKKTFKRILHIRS

[12] = biological target: T3, 5-hydroxytryptamine receptor 2C (Homo sapiens, UniProt P28335); experiment: Antagonist activity at human recombinant 5-HT2C receptor expressed in Flp-In HEK cells in the presence of agonist preincubated for 10 mins by FLIPR based calcium mobilization assay; assay type: functional, cell-based, HEK293
T3 sequence (P28335 whole entry): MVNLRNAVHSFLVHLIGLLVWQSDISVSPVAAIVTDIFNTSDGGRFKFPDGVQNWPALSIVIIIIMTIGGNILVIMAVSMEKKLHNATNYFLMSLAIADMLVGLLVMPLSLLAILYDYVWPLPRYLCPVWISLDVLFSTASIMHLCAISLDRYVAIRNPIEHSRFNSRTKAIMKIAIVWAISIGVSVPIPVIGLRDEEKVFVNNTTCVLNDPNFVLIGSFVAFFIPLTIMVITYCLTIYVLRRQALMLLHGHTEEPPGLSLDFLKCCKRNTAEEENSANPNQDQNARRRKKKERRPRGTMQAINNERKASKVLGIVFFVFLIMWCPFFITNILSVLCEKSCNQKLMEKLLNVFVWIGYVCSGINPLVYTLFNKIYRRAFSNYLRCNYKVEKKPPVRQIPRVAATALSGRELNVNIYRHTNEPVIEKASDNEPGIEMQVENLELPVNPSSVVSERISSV

[13] = Displacement of [3H]DTG from sigma 2 receptor stable expressed in rat PC12 cells after 90 mins by scintillation counting method; assay type: cell-based; settings: pc-12
D(3) dopamine receptor = D(3) dopamine receptor (Homo sapiens, UniProt P35462); experiment: Displacement of [3H]N-methylspiperone from human recombinant dopamine D3 receptor expressed in HEKT cell membrane after 90 mins by scintillation counting method; assay type: cell membranes
[14] = biological target: Muscarinic acetylcholine receptor M4 (Homo sapiens) (UniProt P08173); experiment: Displacement of [3H]NMS from human Muscarinic acetylcholine M4 receptor stably expressed in CHO cell after 90 mins by scintillation counting method; assay type: cell-based
Sequence of Muscarinic acetylcholine receptor M4 (Homo sapiens) (P08173 whole entry): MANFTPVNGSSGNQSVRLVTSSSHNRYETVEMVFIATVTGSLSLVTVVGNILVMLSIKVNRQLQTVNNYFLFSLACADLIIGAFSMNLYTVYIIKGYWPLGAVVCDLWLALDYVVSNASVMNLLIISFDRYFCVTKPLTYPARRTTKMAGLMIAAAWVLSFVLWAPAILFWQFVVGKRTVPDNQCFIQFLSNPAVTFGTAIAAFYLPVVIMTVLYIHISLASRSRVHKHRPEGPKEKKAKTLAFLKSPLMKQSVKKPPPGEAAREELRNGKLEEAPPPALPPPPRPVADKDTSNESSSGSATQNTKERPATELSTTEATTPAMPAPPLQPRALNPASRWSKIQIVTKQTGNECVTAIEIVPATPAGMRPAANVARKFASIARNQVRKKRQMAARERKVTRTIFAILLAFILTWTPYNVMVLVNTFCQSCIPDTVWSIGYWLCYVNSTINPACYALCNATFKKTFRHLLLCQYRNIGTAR

[15] = biological target: Sodium-dependent noradrenaline transporter (Homo sapiens, UniProt P23975); experiment: Displacement of [3H]Nisoxetine from human norepinephrine transporter stably expressed in HEK293 cells after 30 mins by neurotransmitter transporter uptake assay; assay type: cell-based
[16] = biological target: T2, 5-hydroxytryptamine receptor 2B; experiment: Displacement of [3H]LSD from human recombinant 5-HT2B receptor stably expressed in HEK cell membrane at 10 uM after 90 mins by scintillation counting method; assay type: cell membranes; settings: HEK293
[17] = biological target: Alpha-1A adrenergic receptor (Homo sapiens, UniProt P35348); experiment: Displacement of [3H]Prazosin from human recombinant alpha 1A receptor after 90 mins by scintillation counting method
Sequence of Alpha-1A adrenergic receptor (P35348 whole entry): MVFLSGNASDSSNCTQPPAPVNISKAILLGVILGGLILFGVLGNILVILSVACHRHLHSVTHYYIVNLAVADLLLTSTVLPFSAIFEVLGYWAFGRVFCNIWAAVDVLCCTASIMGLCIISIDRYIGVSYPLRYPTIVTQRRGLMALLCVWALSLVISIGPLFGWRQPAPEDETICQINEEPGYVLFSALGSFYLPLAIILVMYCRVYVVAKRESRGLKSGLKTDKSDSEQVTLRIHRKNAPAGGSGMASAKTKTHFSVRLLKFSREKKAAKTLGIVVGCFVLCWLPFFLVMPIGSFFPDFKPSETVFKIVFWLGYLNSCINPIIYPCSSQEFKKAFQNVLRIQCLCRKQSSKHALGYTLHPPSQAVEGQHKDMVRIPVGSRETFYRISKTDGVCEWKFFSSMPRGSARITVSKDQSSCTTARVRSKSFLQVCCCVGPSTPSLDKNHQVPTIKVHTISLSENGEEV

[18] = biological target: 5-hydroxytryptamine receptor 3A (Homo sapiens) (UniProt P46098); experiment: Displacement of [3H]GR65630 from human recombinant 5-HT3 receptor expressed in HEKT cell membrane after 90 mins by scintillation counting method; assay type: cell membranes
Sequence of 5-hydroxytryptamine receptor 3A (Homo sapiens) (P46098 whole entry): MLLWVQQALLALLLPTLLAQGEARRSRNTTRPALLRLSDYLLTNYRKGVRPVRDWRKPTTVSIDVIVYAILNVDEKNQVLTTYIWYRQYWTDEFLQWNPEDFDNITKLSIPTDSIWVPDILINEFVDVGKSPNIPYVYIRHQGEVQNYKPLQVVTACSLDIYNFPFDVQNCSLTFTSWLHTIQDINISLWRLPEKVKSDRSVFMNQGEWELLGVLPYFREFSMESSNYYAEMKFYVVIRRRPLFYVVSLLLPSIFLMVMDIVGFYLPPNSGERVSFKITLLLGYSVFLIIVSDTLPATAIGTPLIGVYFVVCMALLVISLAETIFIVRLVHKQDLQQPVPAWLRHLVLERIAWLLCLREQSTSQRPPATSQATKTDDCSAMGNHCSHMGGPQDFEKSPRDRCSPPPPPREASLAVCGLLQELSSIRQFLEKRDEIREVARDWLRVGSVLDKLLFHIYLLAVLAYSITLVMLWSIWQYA

[19] = biological target: T2, 5-hydroxytryptamine receptor 2B; experiment: Agonist activity at human recombinant 5-HT2B receptor expressed in Flp-In HEK cells preincubated for 10 mins by FLIPR based calcium mobilization assay; assay type: functional, cell-based; settings: HEK293
[20] = biological target: T2, 5-hydroxytryptamine receptor 2B; experiment: Displacement of [3H]LSD from human recombinant 5-HT2B receptor stably expressed in HEK cell membrane after 90 mins by scintillation counting method; assay type: cell membranes, HEK293
[21] = biological target: Muscarinic acetylcholine receptor M2 (Homo sapiens) (UniProt P08172); experiment: Displacement of [3H]QNB from human Muscarinic acetylcholine M2 receptor stably expressed in CHO cell after 90 mins by scintillation counting method; assay type: cell-based
Sequence of Muscarinic acetylcholine receptor M2 (Homo sapiens) (P08172 whole entry): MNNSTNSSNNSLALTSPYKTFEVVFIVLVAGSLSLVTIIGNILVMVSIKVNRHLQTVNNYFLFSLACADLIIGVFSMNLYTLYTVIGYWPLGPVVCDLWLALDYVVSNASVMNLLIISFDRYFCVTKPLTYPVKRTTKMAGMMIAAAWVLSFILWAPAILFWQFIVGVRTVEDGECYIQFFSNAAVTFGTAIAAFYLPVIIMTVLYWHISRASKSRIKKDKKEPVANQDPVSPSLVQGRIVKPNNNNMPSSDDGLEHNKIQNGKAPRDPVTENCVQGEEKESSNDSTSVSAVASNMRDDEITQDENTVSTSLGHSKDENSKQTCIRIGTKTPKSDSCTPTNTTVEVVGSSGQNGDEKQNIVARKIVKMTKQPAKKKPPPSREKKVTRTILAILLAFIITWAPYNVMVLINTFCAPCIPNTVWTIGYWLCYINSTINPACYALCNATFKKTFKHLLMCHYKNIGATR

[22] = biological target: T3, 5-hydroxytryptamine receptor 2C; experiment: Displacement of [3H]mesulergine from human recombinant 5-HT2C receptor expressed in Flp-IN HEK cell membrane after 90 mins by scintillation counting method; assay type: cell membranes, HEK293; settings: read-out: Ki
D(4) dopamine receptor = D(4) dopamine receptor (Homo sapiens, UniProt P21917); experiment: Displacement of [3H]N-methylspiperone from human recombinant dopamine D4 receptor after 90 mins by scintillation counting method
[23] = biological target: Beta-2 adrenergic receptor (Homo sapiens) (UniProt P07550); experiment: Displacement of [3H]CGP12177 from human recombinant beta 2 receptor expressed in HEK Flp-In cells after 90 mins by scintillation counting method; assay type: cell-based; settings: HEK293
Rattus norvegicus [24] = species on record: Rattus norvegicus; experiment: Displacement of [3H]Flunitrazepam from rat brain BZP after 90 mins by scintillation counting method
[25] = biological target: 5-hydroxytryptamine receptor 5A (Homo sapiens) (UniProt P47898); experiment: Displacement of [3H]LSD from human recombinant 5-HT5A receptor expressed in Flp-In CHO cell membrane after 90 mins by scintillation counting method; assay type: cell membranes
Sequence of 5-hydroxytryptamine receptor 5A (Homo sapiens) (P47898 whole entry): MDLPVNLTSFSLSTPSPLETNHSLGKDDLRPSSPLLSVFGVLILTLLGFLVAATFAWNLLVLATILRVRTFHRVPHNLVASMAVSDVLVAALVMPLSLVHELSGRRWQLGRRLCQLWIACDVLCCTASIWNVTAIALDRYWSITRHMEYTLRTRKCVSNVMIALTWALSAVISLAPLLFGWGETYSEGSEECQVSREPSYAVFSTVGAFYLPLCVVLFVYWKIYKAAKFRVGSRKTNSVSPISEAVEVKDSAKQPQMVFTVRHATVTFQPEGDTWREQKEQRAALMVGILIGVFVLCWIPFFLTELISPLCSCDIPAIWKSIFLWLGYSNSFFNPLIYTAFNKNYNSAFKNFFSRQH

Rattus norvegicus [26] = species on record: Rattus norvegicus; experiment: Displacement of [3H]Muscimol from rat brain Gamma-aminobutyric acid type-A receptor after 90 mins by scintillation counting method

COc1ccc(CCN(CCCc2ccccc2)CCc2ccc3c(c2)OCO3)cc1OC
Activity [1]: inactive | Activity [2]: inactive | inhibition [3]: > 50% | Activity [4]: inactive | Ratio Ki (HEK293): 15 | Ki [5]: 0.165 µM | IC50 [6]: 5.01 µM | Ki [7]: 0.176 µM | IC50 [8]: 0.794 µM | Ki [9]: 0.451 µM | Ki [10]: 0.429 µM | Activity [11]: inactive | Ki (Histamine H1 receptor): 1.3 µM | IC50 [12]: 12.6 µM | Ki [13]: 0.242 µM | Ki (D(3) dopamine receptor): 0.498 µM | Activity [14]: inactive | Ki [15]: 0.011 µM | inhibition [16]: > 50% | Ki [17]: 0.333 µM | Activity [18]: inactive | Activity [19]: inactive | Ki [20]: 0.026 µM | Activity [21]: inactive | Ki [22]: 0.399 µM | Ki (D(4) dopamine receptor): 0.853 µM | Activity [23]: inactive | Activity (Rattus norvegicus [24]): inactive | Activity [25]: inactive | Activity (Rattus norvegicus [26]): inactive
